Test results: publication PMC6270614 (Molecules, 2013)
Read-outs that look alike come from different tables or passages of the source.

Assays:
[1] = target: human cannabinoid CB1 receptor (Homo sapiens, UniProt P21554); assay: CB1 receptor radioligand ([3H]CP-55,940) displacement binding assay; conditions: for inhibition at 1 µM: read-out: displacement of [3H]CP-55,940 in the preliminary screen (printed in the CB1 Ki column)
Protocol: In all cases, Ki values were calculated by applying the Cheng-Prusoff equation [34] to the IC50 values (obtained by GraphPad, GraphPad Software, Inc., La Jolla, CA, USA) for the displacement of the bound radioligand by increasing concentrations of the test compounds (after three separate experiments for each compound).

[2] = Experimental activity (pIC50, M), CoMFA training and test set input
[3] = CB1 (Ki, nM), displacement of 0.5 nM [3H]CP-55,940, means ± SEM, n = 3, Cheng-Prusoff from IC50
[4] = IC50 (CB1 displacement), displacement of [3H]CP-55,940
[5] = CoMFA training and test set input, read-out: Experimental activity (pIC50) (converted)

Sequence of human cannabinoid CB1 receptor (P21554 whole entry): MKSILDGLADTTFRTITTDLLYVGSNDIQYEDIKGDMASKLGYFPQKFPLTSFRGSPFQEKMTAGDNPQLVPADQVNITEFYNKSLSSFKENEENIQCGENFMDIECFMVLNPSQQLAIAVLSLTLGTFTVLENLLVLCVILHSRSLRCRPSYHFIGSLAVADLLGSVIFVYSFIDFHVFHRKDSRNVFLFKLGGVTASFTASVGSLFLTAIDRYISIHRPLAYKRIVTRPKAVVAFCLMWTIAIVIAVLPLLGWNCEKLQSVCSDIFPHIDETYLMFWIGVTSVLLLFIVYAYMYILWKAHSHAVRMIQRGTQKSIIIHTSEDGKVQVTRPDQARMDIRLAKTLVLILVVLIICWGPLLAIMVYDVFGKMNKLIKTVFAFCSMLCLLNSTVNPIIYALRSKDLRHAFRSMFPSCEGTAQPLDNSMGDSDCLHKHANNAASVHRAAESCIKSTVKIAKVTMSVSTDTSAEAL

Structure (SMILES): O=C(c1cccc2ccccc12)n1c(-c2ccccn2)nc2ccccc21 [Compound 10, Naphthalen-1-yl(2-(pyridin-2-yl)-1H-benzo[d]imidazol-1-yl)methanone]
- inhibition at 1 µM [1]: < 50%

Structure (SMILES): O=C(c1cccc2ccccc12)n1c(-c2ccccn2)nc2cc(F)ccc21 [Compound 11, (5-Fluoro-2-(pyridin-2-yl)-1H-benzo[d]imidazol-1-yl)(naphthalen-1-yl)methanone]
- inhibition at 1 µM [1]: < 50%
- melting point: 167.2 to 167.9 °C

Structure (SMILES): O=C(c1cccc2ccccc12)n1c(-c2ccccn2)nc2ccc(F)cc21 [Compound 12, (6-Fluoro-2-(pyridin-2-yl)-1H-benzo[d]imidazol-1-yl)(naphthalen-1-yl)methanone]
- inhibition at 1 µM [1]: < 50%
- melting point: 177.2 to 178 °C

Structure (SMILES): Cc1cc2nc(-c3ccccn3)n(C(=O)c3cccc4ccccc34)c2cc1C [Compound 13, (5,6-Dimethyl-2-(pyridin-2-yl)-1H-benzo[d]imidazol-1-yl)(naphthalen-1-yl)methanone]
- inhibition at 1 µM [1]: < 50%
- melting point: 167.2 to 168 °C

Structure (SMILES): O=C(c1cccc2ccccc12)n1c(-c2cccnc2)nc2ccccc21 [Compound 14, Naphthalen-1-yl-(2-(pyridin-3-yl)-1H-benzo[d]imidazol-1-yl)methanone]
- IC50 [1, 2]: 180 nM
- melting point: 148 to 148.1 °C

Structure (SMILES): O=C(c1cccc2ccccc12)n1c(-c2cccnc2)nc2cc(F)ccc21 [Compound 15, (5-Fluoro-2-(pyridin-3-yl)-1H-benzo[d]imidazol-1-yl)(naphthalen-1-yl)methanone]
- Ki [1, 3]: 534 nM
- IC50 [1, 2]: 979 nM

Structure (SMILES): O=C(c1cccc2ccccc12)n1c(-c2cccnc2)nc2ccc(F)cc21 [Compound 16, (6-Fluoro-2-(pyridin-3-yl)-1H-benzo[d]imidazol-1-yl)(naphthalen-1-yl)methanone]
- inhibition at 1 µM [1]: < 50%

Structure (SMILES): Cc1cc2nc(-c3cccnc3)n(C(=O)c3cccc4ccccc34)c2cc1C [Compound 17, (5,6-Dimethyl-2-(pyridin-3-yl)-1H-benzo[d]imidazol-1-yl)(naphthalen-1-yl)methanone]
- inhibition at 1 µM [1]: < 50%
- melting point: 177.2 to 178 °C

Structure (SMILES): O=C(c1cccc2ccccc12)n1c(-c2ccncc2)nc2ccccc21 [Compound 18, Naphthalen-1-yl-(2-(pyridin-4-yl)-1H-benzo[d]imidazol-1-yl)methanone]
- Ki [1, 3]: 37.8 ± 5.3 nM
- IC50 [1, 2]: 69.3 nM
- melting point: 155 to 156.1 °C

Structure (SMILES): O=C(c1cccc2ccccc12)n1c(-c2ccncc2)nc2cc(F)ccc21 [Compound 19, (5-Fluoro-2-(pyridin-4-yl)-1H-benzo[d]imidazol-1-yl)(naphthalen-1-yl)methanone]
- inhibition at 1 µM [1]: < 50%
- melting point: 180.7 to 181.7 °C

Structure (SMILES): O=C(c1cccc2ccccc12)n1c(-c2ccncc2)nc2ccc(F)cc21 [Compound 20, (6-Fluoro-2-(pyridin-4-yl)-1H-benzo[d]imidazol-1-yl)(naphthalen-1-yl)methanone]
- inhibition at 1 µM [1]: < 50%
- melting point: 190.4 to 190.9 °C

Structure (SMILES): Cc1cc2nc(-c3ccncc3)n(C(=O)c3cccc4ccccc34)c2cc1C [Compound 21, (5,6-Dimethyl-2-(pyridin-4-yl)-1H-benzo[d]imidazol-1-yl)(naphthalen-1-yl)methanone]
- Ki [1, 3]: 3.95 ± 0.8 nM
- IC50 [1, 2]: 7.24 nM
- IC50 [1, 4]: < 10 nM
- melting point: 167.2 to 168 °C

Structure (SMILES): O=C(c1ccc2ccccc2c1)n1c(-c2ccccn2)nc2ccccc21 [Compound 22, Naphthalen-2-yl(2-(pyridin-2-yl)-1H-benzo[d]imidazol-1-yl)methanone]
- inhibition at 1 µM [1]: < 50%
- melting point: 145 to 146 °C

Structure (SMILES): O=C(c1ccc2ccccc2c1)n1c(-c2ccccn2)nc2ccc(F)cc21 [Compound 23, (6-Fluoro-2-(pyridin-2-yl)-1H-benzo[d]imidazol-1-yl)(naphthalen-2-yl)methanone]
- Ki [1, 3]: 11.4 ± 0.9 nM
- IC50 [1, 2]: 20.9 nM
- IC50 [1, 4]: ~20 nM

Structure (SMILES): Cc1cc2nc(-c3ccccn3)n(C(=O)c3ccc4ccccc4c3)c2cc1C [Compound 24, (5,6-Dimethyl-2-(pyridin-2-yl)-1H-benzo[d]imidazol-1-yl)(naphthalen-2-yl)methanone]
- Ki [1, 3]: 28.1 ± 2.3 nM
- IC50 [1, 2]: 51.5 nM
- melting point: 168.7 to 169.6 °C

Structure (SMILES): O=C(c1ccc2ccccc2c1)n1c(-c2cccnc2)nc2ccccc21 [Compound 25, Naphthalen-2-yl(2-(pyridin-3-yl)-1H-benzo[d]imidazol-1-yl)methanone]
- inhibition at 1 µM [1]: < 50%
- melting point: 148 to 148.6 °C

Structure (SMILES): O=C(c1ccc2ccccc2c1)n1c(-c2cccnc2)nc2cc(F)ccc21 [Compound 26, (5-Fluoro-2-(pyridin-3-yl)-1H-benzo[d]imidazol-1-yl)(naphthalen-2-yl)methanone]
- IC50 [1, 5]: 10400 nM
- Ki ([1]; read-out: CB1 (Ki)): 5700 ± 200 nM

Structure (SMILES): O=C(c1ccc2ccccc2c1)n1c(-c2cccnc2)nc2ccc(F)cc21 [Compound 27, (6-Fluoro-2-(pyridin-3-yl)-1H-benzo[d]imidazol-1-yl)(naphthalen-2-yl)methanone]
- IC50 [1, 5]: 1770 nM
- Ki ([1]; read-out: CB1 (Ki)): 963 ± 155 nM
- melting point: 167.2 to 167.7 °C

Structure (SMILES): Cc1cc2nc(-c3cccnc3)n(C(=O)c3ccc4ccccc4c3)c2cc1C [Compound 28, (5,6-Dimethyl-2-(pyridin-3-yl)-1H-benzo[d]imidazol-1-yl)(naphthalen-2-yl)methanone]
- Ki [1, 3]: 567 ± 27.8 nM
- IC50 [1, 2]: 1040 nM
- melting point: 166.7 to 166.9 °C

Structure (SMILES): O=C(c1ccc2ccccc2c1)n1c(-c2ccncc2)nc2ccccc21 [Compound 29, Naphthalen-2-yl(2-(pyridin-4-yl)-1H-benzo[d]imidazol-1-yl)methanone]
- IC50 [1, 5]: 8220 nM
- Ki ([1]; read-out: CB1 (Ki)): 4490 ± 133 nM
- melting point: 145 to 146.1 °C

Structure (SMILES): O=C(c1ccc2ccccc2c1)n1c(-c2ccncc2)nc2cc(F)ccc21 [Compound 30, (5-Fluoro-2-(pyridin-4-yl)-1H-benzo[d]imidazol-1-yl)(naphthalen-2-yl)methanone]
- Ki [1, 3]: 1030 ± 57.9 nM
- IC50 [1, 2]: 1880 nM
- melting point: 195.7 to 200.6 °C

Structure (SMILES): O=C(c1ccc2ccccc2c1)n1c(-c2ccncc2)nc2ccc(F)cc21 [Compound 31, (6-Fluoro-2-(pyridin-4-yl)-1H-benzo[d]imidazol-1-yl)(naphthalen-2-yl)methanone]
- Ki [1, 3]: 5.55 ± 0.9 nM
- IC50 [1, 2]: 10.2 nM
- IC50 [1, 4]: < 10 nM

Structure (SMILES): Cc1cc2nc(-c3ccncc3)n(C(=O)c3ccc4ccccc4c3)c2cc1C [Compound 32, (5,6-Dimethyl-2-(pyridin-4-yl)-1H-benzo[d]imidazol-1-yl)(naphthalen-2-yl)methanone]
- inhibition at 1 µM [1]: < 50%
- melting point: 160.4 to 160.9 °C

Structure (SMILES): Cc1cc2nc(-c3ccccn3)n(Cc3ccc4ccccc4c3)c2cc1C [Compound 48, 5,6-Dimethyl-1-(naphthalen-2-ylmethyl)-2-(pyridin-2-yl)-1H-benzo[d]imidazole]
- Ki [1, 3]: 47.4 ± 11.1 nM
- IC50 [1, 2]: 86.9 nM

Structure (SMILES): Fc1ccc2nc(-c3cccnc3)n(Cc3ccc4ccccc4c3)c2c1 [Compound 51, 6-Fluoro-1-(naphthalen-2-ylmethyl)-2-(pyridin-3-yl)-1H-benzo[d]imidazole]
- Ki [1, 3]: 10.7 ± 2.8 nM
- IC50 [1, 2]: 19.6 nM
- IC50 [1, 4]: ~20 nM

Structure (SMILES): c1ccc2cc(Cn3c(-c4ccncc4)nc4ccccc43)ccc2c1 [Compound 53, 1-(Naphthalen-2-ylmethyl)-2-(pyridin-4-yl)-1H-benzo[d]imidazole]
- IC50 [1, 5]: 851 nM
- Ki ([1]; read-out: CB1 (Ki)): 464 ± 30.3 nM
